In US5807855A, “1-piperazino-1,2-dihydroindene derivatives” (priority 1992, dated 1998):
Where two headings read alike, the source gives them in different places.

Assays:
[1] = target: DA D1 receptor (Rattus norvegicus, UniProt P18901); assay: biochemical; type: binding; details: IC50, D1 3H-SCH
[2] = target: T1, DA D2 receptors (Rattus norvegicus, UniProt P61169); assay: Inhibition of 3H-spiperone binding to DA D2 receptors in rat striatal membranes; details: rat striatal membranes, 3H-spiperone; read-out: Receptor Binding; IC50, D2 3H-Spi
T1 construct: DA D2 receptors in rat striatal membranes; from tissue; host or cells: rat striatal membranes
T1 sequence (P61169 whole entry): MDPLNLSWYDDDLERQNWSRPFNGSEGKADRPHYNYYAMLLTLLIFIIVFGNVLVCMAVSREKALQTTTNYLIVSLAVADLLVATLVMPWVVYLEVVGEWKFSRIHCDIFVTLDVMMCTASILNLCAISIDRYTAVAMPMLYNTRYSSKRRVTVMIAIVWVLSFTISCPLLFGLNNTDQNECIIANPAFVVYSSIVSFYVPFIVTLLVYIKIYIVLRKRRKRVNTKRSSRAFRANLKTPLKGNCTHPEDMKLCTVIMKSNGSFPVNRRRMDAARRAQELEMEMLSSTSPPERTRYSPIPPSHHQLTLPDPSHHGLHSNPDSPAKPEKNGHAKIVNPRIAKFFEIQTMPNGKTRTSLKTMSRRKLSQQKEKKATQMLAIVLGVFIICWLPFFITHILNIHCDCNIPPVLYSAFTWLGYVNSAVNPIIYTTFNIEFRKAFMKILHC

[3] = target: T2, 5-HT2 receptors (Rattus norvegicus, UniProt P14842); assay: Inhibition of 3H-ketanserin binding to 5-HT2 receptors in membranes from rat cortex; details: Receptor Binding, IC50, 5-HT2 3H-Ket
T2 construct: 5-HT2 receptors in membranes from rat cortex; from tissue; host or cells: membranes from rat cortex
T2 sequence (P14842 whole entry): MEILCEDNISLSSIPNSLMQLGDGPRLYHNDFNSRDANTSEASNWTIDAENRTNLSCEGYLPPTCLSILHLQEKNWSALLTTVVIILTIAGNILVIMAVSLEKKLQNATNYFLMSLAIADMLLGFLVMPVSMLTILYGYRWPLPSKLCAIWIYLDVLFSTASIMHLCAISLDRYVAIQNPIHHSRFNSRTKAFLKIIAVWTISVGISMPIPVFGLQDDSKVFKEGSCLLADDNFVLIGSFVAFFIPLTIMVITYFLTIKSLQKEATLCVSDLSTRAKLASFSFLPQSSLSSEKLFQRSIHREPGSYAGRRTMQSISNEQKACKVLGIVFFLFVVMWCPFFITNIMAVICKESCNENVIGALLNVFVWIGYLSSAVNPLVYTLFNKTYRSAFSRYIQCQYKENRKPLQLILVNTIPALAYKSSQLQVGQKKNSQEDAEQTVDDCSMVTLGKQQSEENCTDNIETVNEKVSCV
Procedure: Receptor binding studies.
5-HT2 receptors. Inhibition of ^3 H-ketanserin binding to 5-HT2 receptors in membranes from rat cortex was determined as described by Hyttel, J. Acta. Pharmacol. Toxicol.

[4] = rat striatal membranes, 3H-SCH 23390, read-out: Receptor Binding

Chain of DA D1 receptor (P18901 whole entry): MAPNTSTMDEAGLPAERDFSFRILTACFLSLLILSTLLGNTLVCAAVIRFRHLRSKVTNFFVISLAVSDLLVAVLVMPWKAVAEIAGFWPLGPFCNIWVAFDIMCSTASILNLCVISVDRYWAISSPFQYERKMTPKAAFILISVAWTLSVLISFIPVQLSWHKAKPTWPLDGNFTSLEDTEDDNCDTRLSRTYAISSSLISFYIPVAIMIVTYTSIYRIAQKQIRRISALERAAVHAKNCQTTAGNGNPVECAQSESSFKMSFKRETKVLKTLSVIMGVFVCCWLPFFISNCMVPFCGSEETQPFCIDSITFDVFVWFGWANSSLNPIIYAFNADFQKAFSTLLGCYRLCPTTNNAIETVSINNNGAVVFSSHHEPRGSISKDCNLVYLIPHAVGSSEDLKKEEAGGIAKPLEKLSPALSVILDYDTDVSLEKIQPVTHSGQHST

Row | Structure (SMILES) | IC50 [1, 4] [nM] | IC50 [2] [nM] | IC50 [3] [nM] | IC50 ([1]; Receptor Binding) [nM]
1 | CC1(C)CN([C@@H]2C[C@@H](c3ccc(F)cc3)c3ccc(Cl)cc32)CCN1 (racemic) [Compound 1, (±)-Trans-4-[6-chloro-3-(4-fluorophenyl)-2,3-dihydro-1H-inden-1-yl]-2,2-dimethylpiperazine] | 2.1 | 7.3 | 3.2 | 
2 | CN1CCN([C@@H]2C[C@@H](c3ccccc3)c3ccccc32)CC1(C)C (racemic) [Compound 3, (±)-Trans-4-[3-phenyl-2,3-dihydro-1H-inden-1-yl]-1,2,2-trimethyl-piperazine] |  | 140 | 21 | 13
3 | Cc1ccc2c(c1)[C@H](N1CCNC(C)(C)C1)C[C@H]2c1ccc(F)cc1 (racemic) [Compound 4, (±)-Trans-2,2-dimethyl-4-[6-methyl-3-(4-fluorophenyl)-2,3-dihydro-1H-inden-1-yl]piperazine] | 5.9 | 5.6 | 1.5 | 
4 | Cc1ccc2c(c1)[C@H](N1CCN(C)C(C)(C)C1)C[C@H]2c1ccc(F)cc1 (racemic) [Compound 5, (±)-Trans-4-[6-methyl-3-(4-fluorophenyl)-2,3-dihydro-1H-inden-1-yl]-1,2,2-trimethylpiperazine] |  | 4.8 | 3.4 | 2.1
5 | CC1(C)CN([C@@H]2C[C@@H](c3ccc(F)cc3)c3ccc(C(F)(F)F)cc32)CCN1 (racemic) [Compound 6, (±)-Trans-2,2-dimethyl-4-[6-trifluoromethyl-3-(4-fluorophenyl)-2,3-dihydro-1H-inden-1-yl]piperazine] | 2.8 | 5.2 |  | 
6 | CN1CCN([C@@H]2C[C@@H](c3ccc(F)cc3)c3ccc(C(F)(F)F)cc32)CC1(C)C (racemic) [Compound 7, (±)-Trans-4-[6-trifluoromethyl-3-(4-fluorophenyl)-2,3-dihydro-1H-inden-1-yl]-1,2,2-trimethylpiperazine] |  | 5.7 | 4.5 | 1.5
7 | CN1CCN([C@@H]2C[C@@H](c3ccc(F)cc3)c3ccc(Br)cc32)CC1(C)C (racemic) [Compound 8, (±)-Trans-4-[6-bromo-3-(4-fluorophenyl)-2,3-dihydro-1H-inden-1-yl]-1,2,2-trimethylpiperazine] |  | 8.6 | 3 | 1.8
8 | CN1CCN([C@@H]2C[C@@H](c3ccc(F)cc3)c3cc(Cl)c(Cl)cc32)CC1(C)C (racemic) [Compound 9, (±)-Trans-4-[5,6-dichloro-3-(4-fluorophenyl)-2,3-dihydro-1H-inden-1-yl]-1,2,2-trimethylpiperazine] | 18 | 44 | 5.9 | 
9 | CN1CCN([C@@H]2C[C@@H](c3ccc(F)cc3)c3c(Cl)cccc32)CC1(C)C (racemic) [Compound 15, (±)-Trans-4-[4-chloro-3-(4-fluorophenyl)-2,3-dihydro-1H-inden-1-yl]-1,2,2-trimethylpiperazine] | 45 |  | 29 | 
10 | CC1CN([C@@H]2C[C@@H](c3ccc(F)cc3)c3ccc(Cl)cc32)CCN1C (mixture of isomers) [Compound 18, (±)-Trans-4-[6-chloro-3-(4-fluorophenyl)-2,3-dihydro-1H-inden-1-yl]-1,2-dimethylpiperazine] | 2.4 | 12 |  | 
11 | CCC1(CC)CN([C@@H]2C[C@@H](c3ccc(F)cc3)c3ccc(Cl)cc32)CCN1C (racemic) [Compound 24, (±)-Trans-4-[6-chloro-3-(4-fluorophenyl)-2,3-dihydro-1H-inden-1-yl]-2,2-diethyl-1-methylpiperazine] | 8.8 | 38 |  | 
12 | C[C@@H]1CN([C@@H]2C[C@@H](c3ccc(F)cc3)c3ccc(C(F)(F)F)cc32)C[C@H](C)N1 (racemic) [Compound 27, (±)-Trans-4-[6-trifluoromethyl-3-(4-fluorophenyl)-2,3-dihydro-1H-inden-1-yl]-cis-2,6-dimethylpiperazine] | 50 | 33 |  | 
13 | CN1CCN([C@@H]2C[C@@H](c3ccc(F)cc3)c3ccc(Cl)cc32)CC12CCC2 (racemic) [Compound 28, (±)-Trans-8-[6-chloro-3-(4-fluorophenyl)-2,3-dihydro-1H-inden-1-yl]-5-methyl-5,8-diazaspiro[3.5]nonane] |  | 6.3 | 3 | 
14 | CN1CCN([C@@H]2C[C@@H](c3ccsc3)c3ccc(Cl)cc32)CC12CCCC2 (racemic) [Compound 30, (±)-Trans-9-[6-chloro-3-(3-thienyl)-2,3-dihydro-1H-inden-1-yl]-6-methyl-6,9-diazaspiro[4.5]decane] | 1.8 | 5 |  | 
15 | CN1CCN([C@@H]2C[C@@H](c3ccc(F)cc3)c3ccc(Cl)cc32)CC12CCCCC2 (racemic) [Compound 32, (±)-Trans-4-[6-chloro-3-(4-fluorophenyl)-2,3-dihydro-1H-inden-1-yl]-1-methyl-1,4-diazaspiro[5.5]undecan] | 6 | 24 |  | 
16 | Fc1ccc([C@@H]2C[C@@H](N3CCN4CCCCC4C3)c3cc(Cl)ccc32)cc1 (mixture of isomers) [Compound 34, (±)-Trans-2-[6-chloro-3-(4-fluorophenyl)-2,3-dihydro-1H-inden-1-yl]-octahydropyrido[1,2-a]pyrazine] | 2.1 | 11 |  | 

Row | Structure (SMILES) | IC50 [1, 4] [nM] | IC50 [2] [nM] | IC50 [3] [nM] | IC50 ([1]; Receptor Binding) [nM]
17 | CC(C)N1CCN([C@@H]2C[C@@H](c3ccc(F)cc3)c3ccc(Cl)cc32)CC1C (mixture of isomers) [Compound 41, (±)-Trans-4-[6-chloro-3-(4-fluorophenyl)-2,3-dihydro-1H-inden-1-yl]-2-methyl-1-(2-propyl)piperazine] | 1.6 | 17 |  | 
18 | CC(C)N1CCN([C@@H]2C[C@@H](c3ccc(F)cc3)c3ccc(Cl)cc32)CC12CCCC2 (racemic) [Compound 42, (±)-Trans-9-[6-chloro-3-(4-fluorophenyl)-2,3-dihydro-1H-inden-1-yl]-6-(2-propyl)-6,9-diazaspiro[4.5]decane] | 1.3 | 8.8 |  | 
19 | CC1(C)CN([C@@H]2C[C@@H](c3ccc(F)cc3)c3ccc(Cl)cc32)CCN1CCO (racemic) [Compound 43, (±)-Trans-4-[6-chloro-3-(4-fluorophenyl)-2,3-dihydro-1H-inden-1-yl]-2,2-dimethyl-1-piperazineethanol] | 1 | 3 |  | 
20 | CC1(C)CN([C@@H]2C[C@@H](c3ccsc3)c3ccc(Cl)cc32)CCN1CCO (racemic) [Compound 45, (±)-Trans-4-[6-chloro-3-(3-thienyl)-2,3-dihydro-1H-inden-1-yl]-2,2-dimethyl-1-piperazineethanol] | 0.82 | 2.8 |  | 
21 | CC(C)C1CN([C@@H]2C[C@@H](c3ccc(F)cc3)c3ccc(Cl)cc32)CCN1C (relative stereo) [Compound 21, Trans-4-[6-chloro-3-(4-fluorophenyl)-2,3-dihydro-1H-inden-1-yl]-1-methyl-2-(2-propyl)piperazine] | 3.2 | 36 |  | 
22 | CC(C)C1CN([C@@H]2C[C@@H](c3ccc(F)cc3)c3ccc(Cl)cc32)CCN1C (relative stereo) [Compound 22, Trans-4-[6-chloro-3-(4-fluorophenyl)-2,3-dihydro-1H-inden-1-yl]-1-methyl-2-(2-propyl)piperazine] | 43 | 400 |  | 
23 | CC1CN([C@@H]2C[C@@H](c3ccc(F)cc3)c3ccc(Cl)cc32)C(C)CN1C (relative stereo) [Compound 25, (±)-Trans-4-[6-chloro-3-(4-fluorophenyl)-2,3-dihydro-1H-inden-1-yl]-(1-trans-2,5-trimethyl)piperazine] |  |  | 3.4 | 
24 | C[C@@H]1CN([C@@H]2C[C@@H](c3ccc(F)cc3)c3ccc(Cl)cc32)C[C@H](C)N1C (relative stereo) [Compound 26, (±)-Trans-4-[6-chloro-3-(4-fluorophenyl)-2,3-dihydro-1H-inden-1-yl]-(1-cis-2,6-trimethyl)piperazine] |  |  | 3.3 | 
25 | CN1CCN([C@@H]2C[C@@H](c3ccc(F)cc3)c3ccc(Cl)cc32)CC12CCCC2 (relative stereo) [Compound 29] |  |  | 5.2 | 
26 | CC(C)N1CCN([C@@H]2C[C@@H](c3ccc(F)cc3)c3ccc(Cl)cc32)CC1(C)C (relative stereo) [Compound 40] |  |  | 4.1 | 
27 | OCCN1CCN([C@@H]2C[C@@H](c3ccc(F)cc3)c3ccc(Cl)cc32)CC12CCCC2 (relative stereo) [Compound 44] |  |  | 6 | 
28 | CN1CCN([C@@H]2C[C@@H](c3ccc(F)cc3)c3ccc(Cl)cc32)CC12CCCC2 (single isomer, unassigned) [+29, (+)-Trans-9-[6-chloro-3-(4-fluorophenyl)-2,3-dihydro-1H-inden-1-yl]-6-methyl-6,9-diazaspiro[4.5]decane] |  |  | 13 | 
29 | CN1CCN([C@@H]2C[C@@H](c3ccc(F)cc3)c3ccc(Cl)cc32)CC12CCCC2 (single isomer, unassigned) [Compound -29] |  |  | 4 | 
30 | CC(C)N1CCN([C@@H]2C[C@@H](c3ccc(F)cc3)c3ccc(Cl)cc32)CC1(C)C (single isomer, unassigned) [Compound -40] |  |  | 2.5 | 
31 | OCCN1CCN([C@@H]2C[C@@H](c3ccc(F)cc3)c3ccc(Cl)cc32)CC12CCCC2 (single isomer, unassigned) [Compound -44] |  |  | 2.5 | 
32 | OC1CCN2CCN(C3CC(c4ccc(F)cc4)c4ccc(F)cc43)CC2C1 (centres unmarked) [Compound 35, 2-[6-fluoro-3-(4-fluorophenyl)-2,3-dihydro-1H-inden-1-yl]-octahydropyrido[1,2-a]-pyrazine-8-ol] | 30 | 1100 |  | 
